The target in one data set is T1, human V1b receptors (Homo sapiens, UniProt P47901).
T1 sequence (P47901 1-424): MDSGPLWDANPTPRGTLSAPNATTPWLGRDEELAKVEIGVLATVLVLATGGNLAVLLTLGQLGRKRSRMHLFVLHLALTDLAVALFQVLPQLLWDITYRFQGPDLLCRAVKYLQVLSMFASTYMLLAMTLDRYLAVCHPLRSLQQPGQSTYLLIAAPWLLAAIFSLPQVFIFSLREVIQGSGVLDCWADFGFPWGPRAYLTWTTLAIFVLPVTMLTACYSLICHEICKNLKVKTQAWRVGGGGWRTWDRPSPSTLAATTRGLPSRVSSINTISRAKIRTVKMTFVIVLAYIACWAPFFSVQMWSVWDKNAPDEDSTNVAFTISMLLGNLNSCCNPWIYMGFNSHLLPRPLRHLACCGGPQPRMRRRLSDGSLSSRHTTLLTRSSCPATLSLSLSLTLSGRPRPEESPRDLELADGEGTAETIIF
Nature of the data set: Displacement of [3H]-AVP at V1b receptors (binding affinity). As to conditions: [3H]-AVP displacement. The protocol: The affinity of the compounds of formula (I) according to the invention for the arginine-vasopressin V1b receptors was determined in vitro using the method described by Y. de Keyser et al. in Febs Letters, 1994, 356, 215-220. This method consists in studying in vitro the displacement of tritiated arginine-vasopressin ([3H]-AVP) at the V1b receptors present on cell preparations carrying the human V1b receptors.
Background: In a radioligand displacement assay an active substance lowers the binding of a labelled ligand.

Data set [1] deals with T2, human uterine oxytocin receptor (Homo sapiens, UniProt P30559).
T2 construct: expressed in transfected cells
T2 sequence (P30559 1-389): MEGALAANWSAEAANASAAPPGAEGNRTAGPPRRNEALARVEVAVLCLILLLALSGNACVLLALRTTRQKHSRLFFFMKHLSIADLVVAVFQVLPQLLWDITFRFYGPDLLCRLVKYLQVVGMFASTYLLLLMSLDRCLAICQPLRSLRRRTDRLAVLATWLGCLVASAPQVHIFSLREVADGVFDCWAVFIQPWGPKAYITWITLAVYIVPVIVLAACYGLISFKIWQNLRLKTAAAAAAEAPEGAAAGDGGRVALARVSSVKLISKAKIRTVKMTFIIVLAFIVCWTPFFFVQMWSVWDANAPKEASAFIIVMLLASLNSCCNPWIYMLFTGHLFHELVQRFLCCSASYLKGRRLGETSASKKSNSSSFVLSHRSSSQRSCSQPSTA
In words: Displacement of radioiodinated oxytocin analogue at oxytocin receptors. Conditions: for pIC50: affinity at human oxytocin receptors. It is filed as binding. The protocol:
The affinity of the compounds according to the invention for the oxytocin receptors was determined in an in vitro binding test using the method described by J. Elands et al. in Eur. J. Pharmacol., 1987, 147, 197-207. This method consists in studying in vitro the displacement of a radioiodinated analogue of oxytocin at the oxytocin receptors in a membrane preparation of cells transfected with the human uterine oxytocin receptor.

The target in the next data set is human V2 receptors (Homo sapiens, UniProt P30518). In words: Affinity for vasopressin V2 receptors. The format is binding. Conditions: for pIC50: affinity at human V2 receptors. The text has this: Th affinity of the compounds of formula (I) according to the invention for the vasopressin V2 receptors was also studied (method described by M. Birnbaumer et al. in Nature (Lond.), 1992, 357, 333-335).
Chain of human V2 receptors (P30518 whole entry): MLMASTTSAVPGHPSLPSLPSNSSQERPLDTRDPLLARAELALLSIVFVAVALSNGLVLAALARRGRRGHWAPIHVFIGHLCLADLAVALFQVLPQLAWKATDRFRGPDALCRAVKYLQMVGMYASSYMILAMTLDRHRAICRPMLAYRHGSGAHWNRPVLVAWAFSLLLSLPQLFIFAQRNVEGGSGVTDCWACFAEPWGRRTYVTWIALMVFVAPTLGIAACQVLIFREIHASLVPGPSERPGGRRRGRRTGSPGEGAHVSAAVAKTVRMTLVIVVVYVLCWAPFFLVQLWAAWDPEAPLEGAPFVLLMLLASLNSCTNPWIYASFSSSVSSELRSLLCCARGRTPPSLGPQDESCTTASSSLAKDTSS

Data set [2] addresses T3, human V1a receptors (Homo sapiens, UniProt P37288). In words: Displacement of [3H]-AVP at V1a receptors (binding affinity). Conditions: for pIC50: affinity at human V1a receptors, [3H]-AVP displacement; for selectivity for the human V1a and V1b receptors for AVP (in words): versus V2 / oxytocin receptors. The protocol: The affinity of the compounds of formula (I) according to the invention for the arginine-vasopressin V1a receptors was determined in vitro using the method described by M. Thibonnier et al., J. Biol. Chem., 1994, 269, 3304-3310. This method consisted in studying in vitro the displacement of tritiated arginine-vasopressin ([3H]-AVP) at the V1a receptors present on membrane or cell preparations carrying the rat or human V1a receptors.

Data set [3] has as its target T3, human V1a receptors. In words: Intracellular calcium measurement (FLIPR) on cells expressing V1a receptors. It is filed as cell-based. As to conditions: FLIPR and platelet aggregation tests; blocking effects caused by arginine-vasopressin. The protocol:
The agonist or antagonist character of the compounds is determined in vitro in a test for measuring intracellular calcium (FLIPR) on cells expressing the human V1a receptors according to the general technique described in Sullivan et al, Methods Mol. Biol., 1999, 114, 125-133, using 1 μM Fluo-4 AM and in an AVP-induced platelet aggregation test on human PRP (platelet rich plasma) according to the methodology described in J. Clin. Invest., 1993, 92, 224.231. The compounds are preincubated for 30 minutes before the addition of arginine vasopressin in order to determine the agonist and antagonist properties of these molecules.

pIC50: −log10 of the molar value. Counter-ions that a name gives are not always drawn.

T3 sequence (P37288 whole entry): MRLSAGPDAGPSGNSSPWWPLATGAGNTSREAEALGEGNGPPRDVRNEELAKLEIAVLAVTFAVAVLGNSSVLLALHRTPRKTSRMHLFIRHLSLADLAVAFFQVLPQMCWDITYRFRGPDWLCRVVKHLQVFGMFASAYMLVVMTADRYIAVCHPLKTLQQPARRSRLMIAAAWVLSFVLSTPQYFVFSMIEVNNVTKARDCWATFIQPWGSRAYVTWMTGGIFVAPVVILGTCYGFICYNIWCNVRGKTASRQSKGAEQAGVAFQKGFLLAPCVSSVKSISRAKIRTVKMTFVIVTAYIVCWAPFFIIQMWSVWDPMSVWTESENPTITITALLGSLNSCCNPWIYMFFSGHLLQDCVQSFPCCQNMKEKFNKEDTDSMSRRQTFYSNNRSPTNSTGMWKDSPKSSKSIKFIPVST

In turn, `COc1ccc2c(n1)C(CCCN1CCCCC1)(c1ccccc1F)C(=O)N2S(=O)(=O)c1ccc(OC(C)C)cc1` (centres unmarked) (as salt: HCl) gave a melting point of 157 °C.

The molecule `COc1ccc2c(n1)C(CCCN1CCCCC1)(c1ccccc1F)C(=O)N2S(=O)(=O)c1ccc(OC(F)F)cc1` (centres unmarked) (as salt: HCl) gave a melting point of 133 °C.

Molecule `COc1ccc2c(n1)C(CCCN1CCCCC1)(c1ccccc1F)C(=O)N2S(=O)(=O)c1cccc(Cl)c1` (centres unmarked) (as salt: HCl) registered a melting point of 148 °C.

For the molecule `COc1ccc2c(n1)C(CCCN1CCNCC1)(c1ccccc1F)C(=O)N2S(=O)(=O)c1ccc(OC(C)C)cc1` (centres unmarked) (as salt: HCl) [Compound No. 2, 3-(2-fluorophenyl)-1-[(4-isopropoxyphenyl)sulphonyl]-5-methoxy-3-(3-piperazin-1-ylpropyl)-1,3-dihydro-2H-pyrrolo[3,2-b]pyridin-2-one], the melting point turned out to be 123 °C.

`COc1ccc2c(n1)C(CCCN1CCNCC1)(c1ccccc1F)C(=O)N2S(=O)(=O)c1cccc(Cl)c1` (centres unmarked) (as salt: HCl) [compound 4, 1-[(3-chlorophenyl)sulphonyl]-3-(2-fluorophenyl)-5-methoxy-3-(3-piperazin-1-ylpropyl)-1,3-dihydro-2H-pyrrolo[3,2-b]pyridin-2-one] gave a melting point of 177 °C.

In turn, `COc1ccc2c(n1)C(CCCN1CCN(C)CC1)(c1ccccc1F)C(=O)N2S(=O)(=O)c1ccc(OC(C)C)cc1` (centres unmarked) (as salt: HCl) [compound 11, 3-(2-fluorophenyl)-1-[(4-isopropoxyphenyl)sulphonyl]-5-methoxy-3-[3-(4-methylpiperazin-1-yl)propyl]-1,3-dihydro-2H-pyrrolo[3,2-b]pyridin-2-one] yielded a melting point of 190 °C.

For `COc1ccc2c(n1)C(CCCCN1CCNCC1)(c1ccccc1F)C(=O)N2S(=O)(=O)c1ccc(OC(C)C)cc1` (centres unmarked) (as salt: HCl) [compound 14, 3-(2-fluorophenyl)-1-[(4-isopropoxyphenyl)sulphonyl]-5-methoxy-3-(4-piperazin-1-ylbutyl)-1,3-dihydro-2H-pyrrolo[3,2-b]pyridin-2-one], the melting point worked out at 133 °C.

`COc1ccc2c(n1)C(CCCCN1CCN(C)CC1)(c1ccccc1F)C(=O)N2S(=O)(=O)c1ccc(OC(C)C)cc1` (centres unmarked) (as salt: salt) gave a melting point of 52 °C.

Take `COc1ccc2c(n1)C(CCCCN1CCNCC1)(c1ccccc1F)C(=O)N2S(=O)(=O)c1ccc(OC(C)C)cc1` (racemic) (as salt: HCl) [Compound No. 10, 3-(2-Fluorophenyl)-1-[(4-isopropoxyphenyl)sulphonyl]-5-methoxy-3-(4-piperazin-1-ylbutyl)-1,3-dihydro-2H-pyrrolo[3,2-b]pyridin-2-one]: the melting point stood at 210 °C.

In turn, `Cc1ccc2c(n1)C(CCCN1CCNCC1)(c1ccccc1F)C(=O)N2S(=O)(=O)c1ccc(OC(C)C)cc1.Cl` (single isomer, unassigned) registered a melting point of 150 °C.

The molecule `COc1cccc(S(=O)(=O)N2C(=O)C(CCCN3CCNCC3)(c3ccccc3F)c3nc(OC)ccc32)c1.Cl` (single isomer, unassigned) showed a melting point of 178 °C.

`COc1cccc(S(=O)(=O)N2C(=O)C(CCCN3CCCCC3)(c3ccccc3F)c3nc(OC)ccc32)c1.Cl` (single isomer, unassigned) gave a melting point of 148 °C.

For `COc1ccc2c(n1)C(CCCN1CCNCC1)(c1ccccc1F)C(=O)N2S(=O)(=O)c1ccc(OC(C)C)cc1` (centres unmarked) [Compound No. 2, 3-(2-fluorophenyl)-1-[(4-isopropoxyphenyl)sulphonyl]-5-methoxy-3-(3-piperazin-1-ylpropyl)-1,3-dihydro-2H-pyrrolo[3,2-b]pyridin-2-one], the pIC50 at human V1b receptors is 6.46; in data set [1], 7.15; at human V2 receptors, 6.92; on human V1a receptors [2], 9.09.

Regarding `CCN(CC)C(=O)Nc1ccc(S(=O)(=O)N2C(=O)C(NCCC3CCNCC3)(c3ccccc3Cl)c3cc(Cl)c(Cl)cc32)cc1` (stereo not drawn) [Compound α, 3-[4-[[5,6-dichloro-3-(2-chlorophenyl)-2-oxo-3-[(2-piperidin-4-ylethyl)amino]-2,3-dihydro-1H-indol-1-yl]sulphonyl]phenyl]-1,1-diethylurea], on human V1b receptors, the negative-log IC50 (pIC50) was 6.68. In data set [1], the “affinity for the oxytocin receptors (in words)” value is listed as “good affinity” and the negative logarithm of the IC50 (pIC50) was 7.00. Also, at human V2 receptors, the “affinity for the human V2 receptors for AVP (in words)” value is given as “good affinity” and the pIC50 is 7.72. Besides, on human V1a receptors [2], the “affinity for the human V1a receptors for AVP (in words)” value is given as “good affinity”; the negative-log IC50 (pIC50) was 7.64; the “selectivity for the human V1a and V1b receptors for AVP (in words)” value is listed as “not therefore selective”.

`CCN(CC)C(=O)Nc1ccc(S(=O)(=O)N2C(=O)C(NCCC3CCNCC3)(c3ccccc3Cl)c3cc(Cl)c(C)cc32)cc1` (stereo not drawn) [Compound β, 3-[4-[[5-chloro-3-(2-chlorophenyl)-6-methyl-2-oxo-3-[(2-piperidin-4-ylethyl)amino]-2,3-dihydro-1H-indol-1-yl]sulphonyl]phenyl]-1-diethylurea] gave a negative logarithm of the IC50 (pIC50) at human V1b receptors of 6.74. In addition, the pIC50 in data set [1] is 7.16. On human V2 receptors, the “affinity for the human V2 receptors for AVP (in words)” value is recorded as “good affinity” and the pIC50 was 7.89. Moreover, at human V1a receptors [2], the “affinity for the human V1a receptors for AVP (in words)” value is recorded as “good affinity”; the pIC50 is 7.74; the “selectivity for the human V1a and V1b receptors for AVP (in words)” value is “not therefore selective”.

For `COc1ccc2c(n1)C(CCCN1CCNCC1)(c1ccccc1F)C(=O)N2S(=O)(=O)c1ccc(OC(C)C)cc1` (centres unmarked) [No. 2], the “agonist or antagonist character” value at human V1a receptors [3] is reported as “V1a receptor antagonists”.

`COc1ccc2c(n1)C(CCCN1CCNCC1)(c1ccccc1F)C(=O)N2S(=O)(=O)c1cccc(Cl)c1` (centres unmarked) [No. 4]: the “agonist or antagonist character” value on human V1a receptors [3] is “V1a receptor antagonists”.

As to `COc1ccc2c(n1)C(CCCN1CCNCC1)(c1ccccc1F)C(=O)N2S(=O)(=O)c1cccc(Cl)c1` (centres unmarked) [compound 4, 1-[(3-chlorophenyl)sulphonyl]-3-(2-fluorophenyl)-5-methoxy-3-(3-piperazin-1-ylpropyl)-1,3-dihydro-2H-pyrrolo[3,2-b]pyridin-2-one], the pIC50 at human V1b receptors was less than 6.00; in data set [1], less than 6.00; against human V2 receptors it was less than 6.00; at human V1a receptors [2], 8.05.

For the molecule `COc1ccc2c(n1)C(CCCN1CCN(C)CC1)(c1ccccc1F)C(=O)N2S(=O)(=O)c1ccc(OC(C)C)cc1` (centres unmarked) [compound 11, 3-(2-fluorophenyl)-1-[(4-isopropoxyphenyl)sulphonyl]-5-methoxy-3-[3-(4-methylpiperazin-1-yl)propyl]-1,3-dihydro-2H-pyrrolo[3,2-b]pyridin-2-one], the negative-log IC50 (pIC50) at human V1b receptors is less than 6.00; in data set [1], 7.00; on human V2 receptors, 6.68; on human V1a receptors [2] it was 8.15.

Usually melting point stands for the temperature of the solid-liquid transition. Usually pIC50 stands for the IC50 on a negative log10 scale, so that one unit is a factor of ten. A low value points to a high IC50.

Values taken from patent publication US8324214B2, “1,3-dihydro-2H-pyrrolo[3,2-bpyridin-2-one derivatives, preparation thereof and therapeutic uses thereof” (Sanofi, priority 2008, dated 2012).
